In patent US8048825B2, “Haloalkylsulfonanilide derivatives or salt thereof, herbicide comprising the derivatives as active ingredient, and use of the herbicide” (Nihon Nohyaku Co., Ltd., priority 2006, dated 2011):

Key:
Scirpus juncoides [1] = assay: Herbicidal efficacy on paddy field weeds of pre-emergence stage (Pre), Test Example 1; format: in vivo; conditions: 1000 g/ha as active ingredient, examined after 21 days
Method in brief: (§1)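 Clay-loam pots sown with Scirpus juncoides, covered with soil containing Lindernia procumbens seed, flooded to 5 cm. Next day formulated compound applied dropwise to water at 1000 g/ha a.i. Greenhouse-grown; growth inhibition versus untreated scored 0–5 after 21 days.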

Lindernia procumbens = assay: as above; format: in vivo; conditions: 1000 g/ha as active ingredient, examined after 21 days
Method in brief: as §1

Scirpus juncoides [2] = assay: Herbicidal effect on paddy field weeds of post-emergence stage (Post), Test Example 2; format: in vivo; conditions: one-leaf stage, 1000 g/ha as active ingredient, examined after 21 days
Method in brief: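 Scirpus juncoides and Echinochloa crus-galli sown in clay loam, with Lindernia procumbens seed in the soil cover, under 5 cm flooding in greenhouse. At one-leaf stage, 1000 g/ha active ingredient applied to pot water. Efficacy scored visually 0–5 against untreated plants at 21 days after treatment.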

[3] = test system: transplanted paddy-rice (rice species: Nihonbare); assay: Test of phytotoxicity on transplanted paddy-rice, Test Example 3; format: in vivo; conditions: two-leaf stage seedlings, 1000 g/ha as active ingredient, applied 5 days after transplantation, examined after 21 days
Description: Criteria for herbicidal efficacy (growth inhibiting degree) and phytotoxicity. • 5 . . . 100% herbicidal effect, phytotoxicity. • 4 . . . 90%-99% herbicidal effect, phytotoxicity. • 3 . . . 70%-89% herbicidal effect, phytotoxicity. • 2 . . . 40%-69% herbicidal effect, phytotoxicity. • 1 . . . 1%-39% herbicidal effect, phytotoxicity. • 0 . . . 0% herbicidal effect, phytotoxicity.
75 cm^2 plastic pots were filled with the soil (clay loam) and filled with water depth of 5 cm and 2 rice plant seedlings (rice species: Nihonbare) at two-leaf stage were transplanted therein. They were brought up in a greenhouse and, after five days from the transplantation, predetermined effective dosage (1000 g/ha in terms of active ingredient) of formulations comprising a compound of the present invention as an active ingredient was applied to the pot water. Then, they were brought up in a greenhouse and the phytotoxicity was examined after 21 days from the treatment by comparing with the result of an untreated group according to the criteria of Test Example 1. In the table, “-” means that the test was not performed.

SMILES	Scirpus juncoides pre (herbicidal effect) (Scirpus juncoides [1])	Lindernia procumbens pre (herbicidal effect) (Lindernia procumbens)	Scirpus juncoides post (herbicidal effect) (Scirpus juncoides [2])	Rice (phytotoxicity) [3]	melting point [°C]
CCCOC(=O)N(c1ccccc1CN1CCCOC1=O)S(=O)(=O)C(F)(F)F [Compound No. 1-4, 3-{2-[N-(propoxycarbonyl)-N -(trifluoromethanesulfonyl)amino]benzyl)-[1,3]-oxazinan-2-one]	4 (90%-99% herbicidal effect, phytotoxicity)	4 (90%-99% herbicidal effect, phytotoxicity)	4 (90%-99% herbicidal effect, phytotoxicity)	3 (70%-89% herbicidal effect, phytotoxicity)	–
CC1(C)COC(=S)N(Cc2ccccc2NS(=O)(=O)C(F)(F)F)C1 [Compound No. 1-34, 5,5-dimethyl-3-[2-(trifluoromethanesulfonylamino)benzyl]-[1,3]-oxazinan-2-thione]	4 (90%-99% herbicidal effect, phytotoxicity)	4 (90%-99% herbicidal effect, phytotoxicity)	4 (90%-99% herbicidal effect, phytotoxicity)	–	129.9
COC(=O)N(c1ccccc1CN1CC(C)(C)COC1=S)S(=O)(=O)C(F)(F)F [Compound No. 1-35, 5,5-dimethyl-3-(2-[N-(methoxycarbonyl)-N-(trifluoromethanesulfonyl)amino]benzyl)-[1,3]-oxazinane-2-thione]	4 (90%-99% herbicidal effect, phytotoxicity)	4 (90%-99% herbicidal effect, phytotoxicity)	4 (90%-99% herbicidal effect, phytotoxicity)	2 (40%-69% herbicidal effect, phytotoxicity)	–
O=C1OC(c2ccccc2)CCN1Cc1ccccc1NS(=O)(=O)C(F)(F)F (centres unmarked) [Compound No. 1-239, 6-phenyl-3-[2-(trifluoromethanesulfonylamino)benzyl]-[1,3]-oxazinan-2-one]	–	5 (100% herbicidal effect, phytotoxicity)	4 (90%-99% herbicidal effect, phytotoxicity)	–	152
CCOCN(c1ccccc1CN1CCC(c2ccccc2)OC1=O)S(=O)(=O)C(F)(F)F (centres unmarked) [Compound No. 1-248, 6-phenyl-3-{2-[N-(ethoxymethyl)-N-(trifluoromethanesulfonyl)amino]benzyl)-[1,3]-oxazinan-2-one]	–	–	–	–	115.6
CC(C)COC(=O)N(c1ccccc1CN1CCC(C)COC1=O)S(=O)(=O)C(F)(F)F (centres unmarked) [Compound No. 2-28, 3-(2-[N-(isobutoxycarbonyl)-N-(trifluoromethanesulfonyl)amino]benzyl)-6-methyl-[1,3]-oxazepan-2-one]	4 (90%-99% herbicidal effect, phytotoxicity)	4 (90%-99% herbicidal effect, phytotoxicity)	4 (90%-99% herbicidal effect, phytotoxicity)	3 (70%-89% herbicidal effect, phytotoxicity)	–
